The results in this text go back to paper PMC6471591, “Preparation of Sesquiterpene Lactone Derivatives: Cytotoxic Activity and Selectivity of Action” (Molecules, 2019).

In series [1] the test system is A549 cells. Nature of the series: Antiproliferative SRB assay (NCI protocol), 48 h. The format is cell-based. The conditions noted are these: Homo sapiens; A549 (lung), SRB, 48 h drug exposure; read-out: 50% growth inhibition (GI50) ± SD, A549. The procedure:
(§1) In vitro antiproliferative activity was evaluated using the protocol of the National Cancer Institute (NCI) after 48 h of drug exposure using the sulforhodamine B (SRB) assay. […] We cannot discard that increasing lipophilicity may well result in an increase in cytotoxicity in vitro.
(§2) The following human solid tumor cell lines were used in this study: HBL-100 (breast), HeLa (cervix), SW1573 (non-small cell lung), T-47D (breast), A549 (lung), and WiDr (colon). Cells were maintained in 25 cm^2 culture flasks in RPMI 1640 supplemented with 5% heat-inactivated fetal calf serum and 2 mM L-glutamine in a 37 °C, 5% CO2, 95% humidified air incubator. Exponentially growing cells were trypsinized and resuspended in antibiotic containing medium (100 units penicillin G and 0.1 mg of streptomycin per mL). Single-cell suspensions displaying >97% viability by trypan blue dye exclusion test were subsequently counted. After counting, dilutions were made to give the appropriate cell densities for inoculation onto 96-well microtiter plates. Cells were inoculated in a volume of 100 μL per well at densities of 20,000 (WiDr), 15,000 (T-47D and A549), and 10,000 (HeLa, SW1573, and HBL-100) cells per well, based on their doubling times.
(§3) Chemosensitivity tests were performed using the SRB assay of the NCI with slight modifications. Briefly, pure compounds were initially dissolved in DMSO at 400 times the desired final maximum test concentration. Control cells were exposed to an equivalent concentration of DMSO (0.25% v/v, negative control). Each agent was tested in triplicate at different dilutions in the range 1–100 μM. Drug treatment started on day 1 after plating. Drug incubation periods were 48 h, after which cells were precipitated with 25 μL of ice-cold 50% (w/v) trichloroacetic acid and fixed for 60 min at 4 °C. Then, the SRB assay was performed. Optical density (OD) of each well was measured at 492 nm, using BioTek’s PowerWave XS Absorbance Microplate Reader (Highland Park, Winooski, VT, USA). Values were corrected for background OD from wells containing only culture medium. The percentage growth (PG) was calculated with respect to untreated control cells (C) at each level of drug concentrations based on the difference in OD at the start time (T0) and at the end of drug exposure (T), according to NCI formulas. Therefore, if T is greater than or equal to T0, the calculation is 100 × [(T–T0)/(C–T0)]. If T is lower than T0, denoting cell death, the calculation is 100 × [(T–T0)/(T0)]. The effect is defined as the growth percentage, where 50% growth inhibition (GI50) represents the concentration at which PG is +50. Based on these calculations, a PG value of 0 corresponds to the number of cells present at the beginning of drug exposure, while negative PG values denote net cell death.
On the technique in general: The SRB assay estimates cell density from bound dye.

Series [2] concerns HBL100 cells. Nature of the series: Antiproliferative SRB assay (NCI protocol), 48 h. The format is cell-based. The conditions noted are these: Homo sapiens, HBL-100; HBL100 (breast), SRB, 48 h drug exposure; read-out: 50% growth inhibition (GI50) ± SD, HBL100. The protocol: as §1, §2, §3
The subject of series [3] is HeLa cells. In words: Antiproliferative SRB assay (NCI protocol), 48 h. Format: cell-based. The conditions noted are these: Homo sapiens; HeLa (cervix), SRB, 48 h drug exposure; read-out: 50% growth inhibition (GI50) ± SD, HeLa. The protocol:
as §1, §2, §3

The subject of the next series is SW1573 cells. Nature of the series: Antiproliferative SRB assay (NCI protocol), 48 h. The format is cell-based, human. The following applies: for GI50: Homo sapiens, SW1573 (non-small cell lung), SRB, 48 h drug exposure, read-out: 50% growth inhibition (GI50) ± SD, SW1573; for Selectivity Index, SW1573: splenocyte CC50 versus SW1573 GI50. The protocol: as §1, §2, §3

The subject of the next series is T47-D cells. Nature of the series: Antiproliferative SRB assay (NCI protocol), 48 h. The following applies: for GI50: Homo sapiens, T47D, T47-D (breast), SRB, 48 h drug exposure, read-out: 50% growth inhibition (GI50) ± SD, T47-D; for Selectivity Index, T47-D: splenocyte CC50 versus T47-D GI50. Format: cell-based, human. The protocol:
as §1, §2, §3

The subject of the next series is WiDr cells. In words: Antiproliferative SRB assay (NCI protocol), 48 h. The conditions noted are these: for GI50: Homo sapiens, WiDr (colon), SRB, 48 h drug exposure, read-out: 50% growth inhibition (GI50) ± SD, WiDr; for Selectivity Index, WiDr: splenocyte CC50 versus WiDr GI50. Format: cell-based, human. The procedure:
as §1, §2, §3

Series [4] concerns A549 cells. Nature of the series: Antiproliferative SRB assay (NCI protocol), 48 h. Format: cell-based, human. The conditions noted are these: splenocyte CC50 versus A549 GI50.
The subject of series [5] is HBL100 cells. Nature of the series: Antiproliferative SRB assay (NCI protocol), 48 h. The format is cell-based, human. The following applies: splenocyte CC50 versus HBL100 GI50.
Series [6] has as its system HeLa cells. In words: Antiproliferative SRB assay (NCI protocol), 48 h. The format is cell-based, human. The following applies: splenocyte CC50 versus HeLa GI50.
The nature of series [7]: Cytotoxicity on primary cell culture (propidium iodide, flow cytometry). Format: cell-based. The conditions noted are these: for CC50 at 48 h: Balb/c, mouse. The procedure: The cytotoxicity of the sesquiterpene lactones and its derivatives was evaluated using mouse splenocytes. […] Cumanin derivatives (4–11) have shown CC50 values and selectivity indexes higher than natural compound 1. […] The incorporation of two triazole groups in cumanin (1) reduced cytotoxicity on normal cells and improved selectivity against tumor cell lines.
In a 96-well plate, spleen cells from Balb/c mouse (1.5 × 10^5) were incubated with different drug dilutions (200, 100, 50, 10, and 5 μg/mL) in RPMI medium containing 10% fetal calf serum. After 48 h of incubation at 37 °C (5% CO2), cells were harvested, washed once with PBS, and stained with 2.5 μg/mL propidium iodide (PI) for 5 min at room temperature. Subsequently, cell death was assessed by flow cytometry using a BD FACSaria II cytometer. Cells incubated only with a drug vehicle were used as a 100% viability control and death percentage was calculated according to the following formula: Death(%)=[1−(%PI^−cells)drug−treated/(%PI^−cells)100% viability control]×100.
Then the concentration capable of causing cell death in 50% of splenocytes (CC50) was determined using a non-linear regression approach.
Background: In flow cytometry, cells or beads pass a laser one at a time.

With `C=C1C(=O)O[C@@H]2C[C@H](C)[C@@H]3C[C@H](O[Si](C)(C)C)[C@H](O[Si](C)(C)C)[C@@]3(C)C[C@H]12` [Compound 5], the concentration for 50% growth inhibition (GI50) stood at 2.4 µM in the series on A549 cells [1]; 3.6 µM with HBL100 cells [2]; 2.9 µM with HeLa cells [3]; 1.8 µM with SW1573 cells; 1.9 µM in the series on T47-D cells; 2.2 µM in the series on WiDr cells. Moreover, in the series with SW1573 cells, the “Selectivity Index, SW1573” value is reported as 36.9. Also, the “Selectivity Index, T47-D” value in the series with T47-D cells came out at 34.9. Further, in the series on WiDr cells, the “Selectivity Index, WiDr” value was determined as 30.2. Besides, in the series with A549 cells [4], the “Selectivity Index, A549” value is reported as 27.7. In addition, in the series on HBL100 cells [5], the “Selectivity Index, HBL100” value was determined as 18.4. Besides, in the series with HeLa cells [6], the “Selectivity Index, HeLa” value was 22.9.

Regarding `C=C1C(=O)O[C@@H]2C[C@@H](C)[C@@H]3C=CC(=O)[C@@]3(C)[C@@H](OC(C)=O)[C@H]12` [Compound 12], the GI50 in the series on HBL100 cells [2] amounted to 3.6 µM. In the series on SW1573 cells, the GI50 was 4.7 µM and the “Selectivity Index, SW1573” value is 0.1. In addition, in the series with T47-D cells, the 50% growth inhibitory concentration (GI50) was 1.6 µM and the “Selectivity Index, T47-D” value stood at 0.2. Moreover, the CC50 in series [7] (Balb/c mouse spleen cells, 48 h incubation, PI staining, read-out: CC50 ± SD, splenocytes (concentration that causes 50% cell death)) was 0.4 µM. Further, the “Selectivity Index, HBL100” value with HBL100 cells [5] stood at 0.1.

As to `C=C1C(=O)O[C@@H]2[C@H]1CC[C@H](C)[C@@]1(O)C=CC(=O)[C@@]21C` [Compound 3, hymenin], the concentration for 50% growth inhibition (GI50) with A549 cells [1] turned out to be 9.7 µM; in the series on HBL100 cells [2] it was 17 µM; with HeLa cells [3], 14 µM; with SW1573 cells it was 6.4 µM; in the series on T47-D cells it was 20 µM; in the series on WiDr cells, 18 µM. The “Selectivity Index, SW1573” value in the series with SW1573 cells was 0.7. Also, the “Selectivity Index, T47-D” value in the series with T47-D cells worked out at 0.2. For the same molecule, in the series with WiDr cells, the “Selectivity Index, WiDr” value came out at 0.2. The molecule also showed a CC50 at 48 h in [7] of 4.4 µM. The “Selectivity Index, A549” value in the series on A549 cells [4] is 0.4. Further, the “Selectivity Index, HBL100” value in the series with HBL100 cells [5] came out at 0.3. Moreover, in the series on HeLa cells [6], the “Selectivity Index, HeLa” value is 0.3.

Turning to `C=C1C(=O)O[C@@H]2C[C@H](C)[C@@H]3C[C@H](O[Si](c4ccccc4)(c4ccccc4)C(C)(C)C)[C@H](O)[C@@]3(C)C[C@H]12` [Compound 7], the GI50 is 1.6 µM in the series with A549 cells [1]; 3.7 µM in the series with HBL100 cells [2]; 2 µM in the series on HeLa cells [3]; 1.5 µM with SW1573 cells; 3.4 µM with T47-D cells; 3.1 µM in the series with WiDr cells. Besides, in the series with SW1573 cells, the “Selectivity Index, SW1573” value stood at 95.1. The “Selectivity Index, T47-D” value in the series with T47-D cells is on record as 42.0. The “Selectivity Index, WiDr” value with WiDr cells came out at 46.0. Also, in the series with A549 cells [4], the “Selectivity Index, A549” value came to 89.2. The “Selectivity Index, HBL100” value with HBL100 cells [5] was 38.6. The “Selectivity Index, HeLa” value in the series with HeLa cells [6] is 71.3.

For the molecule `C=C1C(=O)O[C@@H]2[C@H]1CC[C@H](C)[C@@]1(O[Si](C)(C)C)C=CC(=O)[C@@]21C` [Compound 15], the GI50 in the series with A549 cells [1] amounted to 3.4 µM; in the series on HBL100 cells [2], 4.6 µM; in the series with HeLa cells [3], 3.3 µM; in the series with SW1573 cells it was 2.4 µM; in the series on T47-D cells it was 4.2 µM; with WiDr cells, 6.8 µM. The “Selectivity Index, SW1573” value with SW1573 cells amounted to 0.9. In addition, the “Selectivity Index, T47-D” value in the series with T47-D cells came out at 0.5. The “Selectivity Index, WiDr” value in the series on WiDr cells is listed as 0.3. The molecule further gave a CC50 at 48 h in [7] of 2.3 µM. Moreover, the “Selectivity Index, A549” value in the series on A549 cells [4] is listed as 0.7. Further, the “Selectivity Index, HBL100” value in the series on HBL100 cells [5] was 0.5. Besides, the “Selectivity Index, HeLa” value with HeLa cells [6] is given as 0.7.

Turning to `C=C1C(=O)OC2CC(C)C3CC(O)C(O)C3(C)CC12` (stereo not drawn) [Compound 1, cumanin], the concentration for 50% growth inhibition (GI50) in the series with A549 cells [1] was determined as 19 µM; with HBL100 cells [2] it was 21 µM; in the series on HeLa cells [3] it was 19 µM; in the series on SW1573 cells it was 14 µM; with T47-D cells it was 30 µM; in the series on WiDr cells it was 36 µM. Further, the “Selectivity Index, SW1573” value in the series with SW1573 cells is 2.1. Further, the “Selectivity Index, T47-D” value with T47-D cells is 1.0. The “Selectivity Index, WiDr” value with WiDr cells came to 0.8. Also, the “Selectivity Index, A549” value in the series with A549 cells [4] is 1.5. Moreover, in the series on HBL100 cells [5], the “Selectivity Index, HBL100” value stood at 1.4. Moreover, the “Selectivity Index, HeLa” value with HeLa cells [6] came out at 1.5.

The term GI50 denotes the concentration at which growth is held to half of that of the control.
